This is an account of results in US20090036355A1, “Antisense Modulation of PTP1B Expression” (priority 2004, published 2009).

Data set [1] concerns T-cell phosphatase (TC-PTPase, PTPN2). Briefly: TC-PTPase protein in HEPG2 cells (Western blot). It is filed as cell-based, human. Conditions: 150 nM. How it is done: (§1) There is a high degree of homology between PTP1B and T-cell phosphatase (TC-PTPase, PTPN2), particularly in the catalytic domain. This may present problems in design of small molecule drugs specific for PTP1B. […] HEPG2 human hepatocellular liver carcinoma cells (ATCC, Manassas Va.) are routinely maintained in minimum essential medium (Eagle) with 2 mM L-glutamine and Earle's BSS adjusted to contain 1.5 g/L sodium bicarbonate, 0.1 mM non-essential amino acids, and 1.0 mM sodium pyruvate, […]; fetal bovine serum.
(§2) Levels of PTP1B and TC-PTPase protein were measured by Western blot using mouse monoclonal antibodies to PTP1B (AB-1) and TC-PTPase (AB-1) (CalBiochem/Oncogene sciences, EMD Biosciences, Inc., San Diego Calif.), which specifically identified human target proteins and were used at 0.25 ug/ml. Results were expressed as percent of control (no oligo treatment).
On the technique in general: In western blotting, separated proteins are transferred to a membrane and probed.

For data set [2], the system named is ZDF rats. The experiment in a line: Fed plasma glucose in Zucker diabetic fatty (ZDF) rats. It is filed as in vivo, rat. The source says: The leptin receptor deficient Zucker diabetic fatty (ZDF) rat is another useful model for the investigation of type 2 diabetes. Diabetes develops spontaneously in these male rats at ages 8-10 weeks, and is associated with hyperphagia, polyuria, polydipsia, and impaired weight gain, symptoms which parallel the clinical symptoms of diabetes (Phillips M S, et al., 1996, Nat Genet. 13, 18-19).
(§3) ZDF/GmiCrl-fa/fa (ZDF) male rats were purchased from Charles River Laboratories (Wilmington, Mass., USA). Six week old ZDF male rats were injected intraperitoneally with oligonucleotides at a dose of 25 mg/kg two times per week for four weeks. […] Saline-injected animals also serve as controls.

In the next data set the test system is PTP1B protein. The experiment in a line: PTP1B protein levels in ZDF rats (Western blot). It counts as in vivo, rat. Conditions: compared to saline-treated animals. How it is done: as §3
PTP1B protein levels were measured by Western blot analysis.

The test system of data set [3] is ZDF rats. Briefly: Intraperitoneal glucose tolerance test (IPGTT) in ZDF rats. It is filed as in vivo, rat. On the procedure:
as §3
An intraperitoneal glucose tolerance test (IPGTT) was also performed. Rats received intraperitoneal injections of glucose, and the blood glucose and insulin levels are measured before the glucose challenge and at intervals over 2 hours. The blood glucose levels (in mg/dL) are shown below in Table 1: […]

A further data set has as its system PTP1B. The experiment in a line: PTP1B protein in HEPG2 cells (Western blot). It counts as cell-based, human. Conditions: 150 nM. On the procedure:
as §1, §2

The conditions of data set [4]: rat, in vivo.
The nature of data set [5]: AST/ALT and plasma cholesterol in aged ZDF rats. Conditions: weeks 1, 2, 3, 4 and 5.
Data set [6] deals with ZDF rats. The experiment in a line: ZDF rats: comparison to rosiglitazone and metformin (glucose, HbA1c, meal tolerance, body weight). It counts as in vivo, rat. How it is done: A saline treated group of lean rats was also included in the study. Treatment with all drugs was initiated before the rats became frankly diabetic, which occurs at about 8 weeks of age. Plasma glucose levels were measured 3 and 5 weeks after treatment initiation. Body weight was measured once every week; in addition, HbA, levels were measured at the end of the study by HPLC. A meal tolerance test was also performed after 4 weeks of treatment.
At the end of 5 weeks, some rats were sacrificed and the liver and epididymal fat pads were removed. The rest of the animals (n=4/group) were examined for changes in plasma glucose levels after cessation of treatment. Glucose measurements during the recovery phase were made 10 days and 5 weeks after stopping treatment. Tissue extracts were subjected to Western blot analysis to measure changes in PTP1B protein levels.

Data set [7] concerns ZDF rats. The experiment in a line: Combination with metformin in ZDF rats: plasma glucose. It counts as in vivo, rat. Conditions: 4 weeks, metformin 100, 300 or 500 mg/kg per day, ISIS 113715 12.5 mg/kg twice a week.
Procedure: 500 mg/kg is the maximally effective dose that can be tolerated by these rats. Plasma glucose was measured at week 0 (before treatment) and after weeks 1, 2 and 4 of treatment.
Data set [8] can be described thus: Combination with metformin in ZDF rats: hypoglycemia, AST/ALT, lipids, plasma lactate. It is filed as in vivo, rat. Conditions: after 4 weeks of treatment, metformin 100, 300 or 500 mg/kg per day, ISIS 113715 12.5 mg/kg twice a week. On the procedure:
500 mg/kg is the maximally effective dose that can be tolerated by these rats.
There was no significant change in AST/ALT, plasma triglyceride or plasma cholesterol levels in any animal group. Because of the risk of lactic acidosis associated with metformin treatment, plasma lactate levels were measured.

Read-outs that look alike come from different tables or passages of the source.

Regarding “ISIS 141923: CCTTCCCTGAAGGTTCCTCC; SEQ ID NO: 20, six-mismatch control of ISIS 113715, negative oligonucleotide control (chemistry not given here)”, the “TC-PTPase levels reduced by” value in [1] was “reduced neither”. The “fed plasma glucose levels” value with ZDF rats [2] (25 mg/kg i.p. two times per week, week 0, saline 302±44) was “approximately 306±59 mg/dL”; in the data set with ZDF rats [2] (week 1, saline 400±17), ~391 ± 35 mg/dL; in the data set on ZDF rats [2] (week 2, saline 441±13), ~402 ± 37 mg/dL; with ZDF rats [2] (week 3, saline 453±26), ~411 ± 27 mg/dL; in the data set with ZDF rats [2] (week 4, saline 425±10), ~392 ± 11 mg/dL. Further, the “PTP1B protein levels decreased by” value in the data set on PTP1B protein was 10%. Besides, the “Blood glucose after IPGTT, Glucose mg/dL ± SEM” value in the data set with ZDF rats [3] (0 min) came to 330 ± 39 mg/dL; in the data set on ZDF rats [3] (5 min), 543 ± 43 mg/dL; in the data set on ZDF rats [3] (15 min), 703 ± 60 mg/dL; in the data set on ZDF rats [3] (30 min) it was 791 ± 52 mg/dL; in the data set with ZDF rats [3] (60 min) it was 705 ± 51 mg/dL; in the data set on ZDF rats [3] (120 min), 594 ± 28 mg/dL. For the same compound, the “Insulin excursion after IPGTT, Insulin (ng/ml ± SEM)” value with ZDF rats [3] (0 min) is 2.2 ± .30 ng/mL; in the data set on ZDF rats [3] (5 min), 2.3 ± .84 ng/mL; with ZDF rats [3] (15 min), 4.0 ± .22 ng/mL; in the data set on ZDF rats [3] (30 min), 4.2 ± .37 ng/mL; with ZDF rats [3] (60 min) it was 2.4 ± .66 ng/mL; in the data set on ZDF rats [3] (120 min) it was 1.7 ± .60 ng/mL. In addition, the “Insulin AUC after IPGTT” value with ZDF rats [3] (saline approximately 300) is on record as ~320. For the same compound, the “Glucose excursion (AUC) after IPGTT” value with ZDF rats [3] (saline approximately 72,000) is on record as “approximately 80,000”. The “PTP1B protein levels reduced by” value in the data set on PTP1B is “reduced neither”. Besides, the “AST/ALT and plasma cholesterol levels” value in data set [4] is on record as “no significant effects”.

Consider `CN(CCOc1ccc(CC2SC(=O)NC2=O)cc1)c1ccccn1` (stereo not drawn) [Rosiglitazone], for which the “AST/ALT and plasma cholesterol levels” value in [5] was “no significant effects”. Moreover, the “Blood glucose (mg/dL) (approx.)” value in the data set on ZDF rats [6] (10 day washout, saline 310) is listed as ~260 mg/dL; in the data set with ZDF rats [6] (31 day washout, saline 320), ~270 mg/dL; in the data set with ZDF rats [6] (Pre-treatment, ISIS 113715 50 mg/kg/week IP, rosiglitazone 10 mg/kg/day, metformin 800 mg/kg/day orally, saline 140) it was ~140 mg/dL; in the data set with ZDF rats [6] (Week 3 of dosing, saline 320), ~110 mg/dL.

For `CN(C)C(=N)N=C(N)N` [Metformin], the “effect on blood glucose over time” value in the data set with ZDF rats [7] is on record as “lost over time”. Besides, the “Blood glucose (mg/dL) (approx.)” value in the data set on ZDF rats [6] (31 day washout, saline 320) is listed as ~330 mg/dL; with ZDF rats [6] (Week 3 of dosing, saline 320) it was ~180 mg/dL. For the same compound, the body weight result in the data set on ZDF rats [6] (after treatment) is “remained unchanged”. For the same compound, the plasma lactate levels entry in data set [8] is “dose-dependent increase”.
